Assay results as given in patent publication US10352938B2, “Macrocyclic HOPO chelators” (LUMIPHORE, INC., priority 2009, dated 2019).
Where two headings read alike, the source gives them in different places. Marks after values point to notes of the source that are not given here.

Experiments:
[1] = UV/visible absorption spectroscopy of Eu(III) complexes in TRIS buffer; format: physicochemical; settings: for λ: absorption maximum
Excerpt: Extinction Coefficient. A series of solutions of varied concentrations will be prepared from the solids based on mass and purity. The absorbance of each of these solutions at both 340 nm and at the appropriate acceptor wavelength will be measured and plotted according to Beer's Law (A=εcL where A is absorbance, ε is the extinction coefficient in M^−1 cm^−1, c is concentration, and L is path length in cm) with the fitted linear regression slope equal to […] on a plot of A as a function of C.
Each of the spectra have absorption maxima around 335-340 nm (FIG. 2). Those bands are composed of two electronic transitions; at higher energy, a purely π-π* transition and, at slightly lower energy (around ca. 320 nm), a π-π* transition with some n-π* character, as evidenced previously from TD-DFT calculations. […] This interaction gives maxima blue-shifting from 341 nm for [Eu(H(2,2)-1,2-HOPO)]^0 to 334 nm for [Eu(H(17O5,2)-1,2-HOPO)]^0 (as low as 332 nm for)[Eu(5LIN^Me-1,2HOPO)2]^0).

[2] = Luminescence quantum yield, emission and brightness in aqueous 0.1 M TRIS buffer; format: physicochemical; settings: for øTot: 0.1M TRIS buffer pH = 7.4; for Brightness: at maximum absorption, product of quantum yield and molar absorption coefficient, 0.1 M TRIS pH = 7.4; for overall quantum yield (in words): related to inner-sphere coordinated water
Procedure: Quantum Yield. Quantum yield will be measured using established methods. Fluorescence quantum yield Q are measured in diluted solution with an optical density lower than 0.1 using the following equation Qx/Qr=[Ar(λr)/Ax(λx)][nx^2/nr^2][Dx/Dr] were A is the absorbance at the excitation wavelength (λ), n the refractive index and D the integrated luminescence intensity. Subscripts “r” and “x” stand for reference and sample, respectively. References will be a quinine bisulfate in 1N sulfuric acid in aqueous solution (Qt=0.546)^1 and Ru(bpy)3 2C1 complexes in water solution (Qr=0.028)^2 for all complexes. A plot of integrated emission intensity (i.e. Dr) versus absorbance (i.e. Ar(λr)) yields a linear plot with a slope which can be equated to the reference quantum yield Qr. By analogy, for the unknown sample, a plot of integrated emission intensity (i.e. Dx) versus absorbance (i.e. Ax(λx)) yields a linear plot and Qx can then be evaluated. A minimum of at least two independent measurements will be averaged to derive a reliable value.

[3] = Triplet excited state energy from phosphorescence of Gd complexes at 77K; format: physicochemical; settings: solid matrix (methanol/ethanol 1/4), using the Gd complexes
Procedure: Estimation of the energies of the ligand based triplet excited state were determined using the Gd(III) complexes. Gadolinium was chosen because it is a 4f^7 lanthanide cation having a similar 4f electronic configuration and size as the europium cation (4f^6), but lacking an accessible metal based low energy electronic excited state. At room temperature, only a broad weak emission centered between 380-400 nm can be seen for the Gd(III) complexes. […] At 77K, in solid matrix, an emission band at approx. 500 nm can be seen (FIG. 8). This emission, red-shifted compared to the singlet excited state, can be assigned to phosphorescence from the triplet excited state, lower in energy than the singlet excited state observed at room temperature. Selective time gated phosphorescence spectra (delay 0.1 ms) of the gadolinium complexes at 77K are depicted in FIG. 8.

[4] = Calculation of Eu luminescence parameters (radiative lifetime, rate constants, efficiencies); format: physicochemical; settings: for η^Eu: efficiency of metal centred luminescence; for knr: non-radiative rate constant; for τrad: pure radiative luminescence lifetime, aqueous TRIS pH = 7.4; for kr: radiative rate constant; for η^sens: sensitization efficiency; for metal centred efficiency: TRIS buffer
Procedure: In this equation, the ηISC ηET term is termed the sensitization efficiency, ηsens (ηsens=ηISC ηET). All the luminescence parameters τR (the pure radiative luminescence lifetime), kR and knR (the radiative and non-radiative constant rate) can be deduced. These parameters were calculated for five of the octadentate complexes and the model complex that present only one species in solution at pH=7.4 and are reported in Table 6.

[5] = cited from earlier work; for λ: absorption maximum
[6] = cited from earlier work
[7] = cited from earlier work; remark: listed apart in the source
[8] = cited from earlier work; remark: listed apart in the source
[9] = Luminescence lifetimes (TRIS buffer, deuterated water, 77K) and inner sphere water number q; settings: for τ^D / τ (77K): first component; for q / q, second species: inner sphere water molecules; for q: first species
Procedure: Fluorescent decay signals can be acquired using an IBH DataStation Hub photon counting module and data analysis performed using the commercially available DAS 6 decay analysis software package from HORIBA Jobin Yvon IBH. Goodness of fit will be assessed by minimizing the reduced chi squared function, χ2, and a visual inspection of the weighted residuals. Each trace will use at least 10,000 points and the reported lifetime values result from at least three independent measurements.
In addition to the steady state emission spectra, the luminescence quantum yields and luminescence lifetimes of the Eu(III) complexes were also measured in aqueous solution with 0.1 M TRIS buffer pH=7.4 and in deuterated solution to estimate the number of inner sphere water molecule (i.e. q) using the improved Horrock's equations.
Luminescence lifetimes were also determined at 77K, in a solid matrix (Table 5), which have allowed us to determine whether back energy transfer between the donor triplet excited state and the acceptor manifold excited state of the lanthanide is present, or alternately whether quenching via low lying LMCT state occurs.

[10] = Stability titration (pEu) by competitive batch titration using DTPA; format: physicochemical; settings: for pEu: competitive batch titration using DTPA in 0.1M TRIS pH = 7.4 and 0.1M KCl; for pEu value as compared to DTPA / thermodynamic stability in aqueous solution: in words; for thermodynamic stability in aqueous solution: pH=7.4
Procedure: Stability Titrations. The general procedure used to determine the pEu values of ligands was adapted from an already described study using Gd and are similar to that already reported for other complexes. Different volumes of a standardized DTPA stock solution were added to solutions of constant ligand, metal, and electrolyte concentrations. Concentrations of complexed ligand in each solution were determined by subtracting the remaining luminescence intensity after addition of DTPA to the initial luminescence intensity at identical pH and those concentrations were used as references for the analysis. Stability of compounds towards mM concentrations of EDTA and divalent cations will be assessed by incubation of the proposed molecules at nM concentration at room temperature in aqueous solutions of test ions. Time Resolved Fluorescent signal will be assessed at the outset of experiment and monitored over a minimum of 24 hours to determine signal change.

[11] = TRIS buffer pH = 7.4, listed as [Eu(5LIN^Me-1,2HOPO)2]^0
[12] = listed as [Eu(5LIN^Me-1,2HOPO)2]^0
[13] = listed as [Eu(5LIN^Me-1,2-HOPO)2]
[14] = extinction coefficient, in M-1·cm-1
[15] = solid matrix at 77K (methanol/ethanol 1/4)
[16] = aqueous TRIS pH = 7.4, complexes with only one species

With `O=C(NCCN(CCCCN(CCNC(=O)c1cccc(=O)n1O)CCNC(=O)c1cccc(=O)n1O)CCNC(=O)c1cccc(=O)n1O)c1cccc(=O)n1O` [Eu(5LiN^Me), reference compound] the ε [1, 11] was 18,050 M^−1 · cm^−1, the “λ^maxabs” value [1, 11] was 332 nm and the øTot [2, 12] was 0.173^b. The ϕTot ([2]; aqueous TRIS pH = 7.4, complexes with only one species, listed as [Eu(5LIN^Me-1,2-HOPO)2]) was 0.173, the Brightness ([2]; listed as [Eu(5LIN^Me-1,2-HOPO)2]^0) was 3400 M⁻¹ cm⁻¹ and the Brightness [2, 12] was 3120 M⁻¹ cm⁻¹. For the same compound, the “T0-0 (triplet excited state energy)” value [3, 12] was 22,010 cm^−1, the “η^Eu” value [4, 13] was 0.412 and the knr [4, 13] was 807 s⁻¹. The τrad [4, 13] was 1770 μs, the kr [4, 13] was 566 s⁻¹ and the “η^sens” value [4, 13] was 0.420. For the same compound, the λ [5] was 332 nm, the λ ([5]; see reference [47]) was 332 nm and the ε ([5]; extinction coefficient) was 18,750 M^1 cm^−1. For the same compound, the ε ([5]; see reference [47], in M-1·cm-1 (unit assumed)) was 18,750, the ϕEu ([6]; quantum yield) was 0.17 and the ϕTot ([6]; see reference [47]) was 0.17. The “τ (D2O)” value ([7]; D2O, first component where two are printed) was 1000 μs, the “τ (H2O)” value ([7]; H2O, first (longer) component) was 728 μs and the q ([7]; number of inner sphere water molecules, first species) was 0.1. For the same compound, the q ([7]; see reference [47]) was 0.1, the τ ([7]; see reference [47]) was 728 μs and the “τ^D” value ([7]; see reference [47]) was 1000 μs. For the same compound, the pEu ([8]; competitive batch titration using DTPA in 0.1M TRIS pH = 7.4 and 0.1M KCl) was 17.3, the pEu ([8]; see reference [47], DTPA competition, 0.1M TRIS pH = 7.4, 0.1M KCl) was 17.3 and the τ ([9]; aqueous TRIS pH = 7.4, listed as [Eu(5LIN^Me-1,2-HOPO)2]) was 728 μs. For the same compound, the “τ^D” value ([9]; deuterated solution, listed as [Eu(5LIN^Me-1,2HOPO)2]^0) was 1000^b μs, the q ([9]; improved Horrock's equations, listed as [Eu(5LIN^Me-1,2HOPO)2]^0) was 0.1^b and the “τ (77K)” value ([9]; solid matrix at 77K (methanol/ethanol 1/4), listed as [Eu(5LIN^Me-1,2HOPO)2]^0) was 860 μs.

For `O=C(NCCN(CCNC(=O)c1cccc(=O)n1O)CCOCCN(CCNC(=O)c1cccc(=O)n1O)CCNC(=O)c1cccc(=O)n1O)c1cccc(=O)n1O.[Eu]` [Eu(H5-1)], the ε ([1]; TRIS buffer pH = 7.4) was 15,900 M^−1 · cm^−1, the “λ^maxabs” value ([1]; TRIS buffer pH = 7.4) was 337 nm and the λ [1] was 337 nm. The ε [1, 14] was 15,900, the øTot [2] was 0.067 and the ϕTot ([2]; aqueous quantum yield) was 0.067. The Brightness [2] was 1065 M⁻¹ cm⁻¹, the “overall quantum yield (in words)” value [2] was “low quantum yields” and the pEu [10] was 19.2. The “pEu value as compared to DTPA” value [10] was “increased”, the “T0-0 (triplet excited state energy)” value [3] was 22,000 cm^−1 and the “τ^D” value ([9]; deuterated solution) was 825; μs. For the same compound, the “τ^D, second component” value ([9]; deuterated solution, second component) was 462 μs, the “τ^D” value ([9]; deuterated water) was 825 μs and the “τ^D, second component” value ([9]; deuterated water, second component) was 438 μs. The τ ([9]; first (longer) component) was 651 μs, the q ([9]; improved Horrock's equations) was 0; and the q [9] was 0. For the same compound, the “q, second species” value [9] was 0.8, the “q, second species” value ([9]; listed as [Eu(H(5O,2)-1,2HOPO)]^0) was 1.1 and the “τ, second component” value ([9]; second (shorter) component) was 304 μs. The “τ (77K)” value [9, 15] was 823; μs and the “τ (77K), second component” value ([9]; solid matrix at 77K (methanol/ethanol 1/4), second component) was 608 μs.

In the case of `O=C(NCCN(CCNC(=O)c1cccc(=O)n1O)CCOCCOCCN(CCNC(=O)c1cccc(=O)n1O)CCNC(=O)c1cccc(=O)n1O)c1cccc(=O)n1O` [Eu(H8-2)], the ε ([1]; TRIS buffer pH = 7.4) is reported as 15,350 M^−1 · cm^−1, the “λ^maxabs” value ([1]; TRIS buffer pH = 7.4) is reported as 336 nm and the λ [1] is reported as 336 nm. The ε [1, 14] was 15,350, the øTot [2] was 0.112 and the ϕTot [2, 16] was 0.112. For the same compound, the ϕTot ([2]; aqueous quantum yield) was 0.112, the Brightness [2] was 1720 M⁻¹ cm⁻¹ and the “overall quantum yield (in words)” value [2] was “comparatively high quantum yields”. For the same compound, the pEu [10] was 20.4, the “pEu value as compared to DTPA” value [10] was “increased” and the “T0-0 (triplet excited state energy)” value [3] was 22,320 cm^−1. The sensitization process efficiency [4] was 28.4%, the “η^Eu” value [4] was 0.395 and the knr [4] was 869 s⁻¹. The τrad [4] was 1770 μs, the kr [4] was 566 s⁻¹ and the “η^sens” value [4] was 0.284. For the same compound, the τ ([9]; aqueous TRIS pH = 7.4) was 697 μs, the “τ^D” value ([9]; deuterated solution) was 913 μs and the “τ^D” value ([9]; deuterated water) was 913 μs. The τ ([9]; first (longer) component) was 697 μs, the q ([9]; improved Horrock's equations) was 0 and the “τ (77K)” value [9, 15] was 748 μs.

In the case of `O=C(NCCN(CCNC(=O)c1cccc(=O)n1O)CCOCCOCCOCCOCCN(CCNC(=O)c1cccc(=O)n1O)CCNC(=O)c1cccc(=O)n1O)c1cccc(=O)n1O.[Eu]` [[Eu(H(14O4,2)-1,2HOPO)]^0], the ε ([1]; TRIS buffer pH = 7.4) is reported as 15,200 M^−1 · cm^−1, the “λ^maxabs” value ([1]; TRIS buffer pH = 7.4) is reported as 336 nm and the øTot [2] is reported as 0.192. The ϕTot [2, 16] was 0.192, the Brightness [2] was 2920 M⁻¹ cm⁻¹ and the “thermodynamic stability in aqueous solution” value [10] was “high thermodynamic stabilities”. The “T0-0 (triplet excited state energy)” value [3] was 22,020 cm^−1, the metal centred efficiency [4] was “around 50%” and the “η^Eu” value [4] was 0.528. The knr [4] was 674 s⁻¹, the τrad [4] was 1326 μs and the kr [4] was 754 s⁻¹. For the same compound, the “η^sens” value [4] was 0.364, the τ ([9]; aqueous TRIS pH = 7.4) was 700 μs and the “τ^D” value ([9]; deuterated solution) was 961 μs. The q ([9]; improved Horrock's equations) was 0.1 and the “τ (77K)” value [9, 15] was 819 μs.

In the case of `O=C(NCCN(CCNC(=O)c1cccc(=O)n1O)CCOCCOCCOCCOCCOCCN(CCNC(=O)c1cccc(=O)n1O)CCNC(=O)c1cccc(=O)n1O)c1cccc(=O)n1O.[Eu]` [[Eu(H(17O5,2)-1,2HOPO)]^0], the ε ([1]; TRIS buffer pH = 7.4) is reported as 15,000 M^−1 · cm^−1, the “λ^maxabs” value ([1]; TRIS buffer pH = 7.4) is reported as 336 nm and the “λ^maxabs” value ([1]; TRIS buffer pH = 7.4, listed as [Eu(H(17O5,2)-1,2-HOPO)]^0) is reported as 334 nm. The øTot [2] was 0.196, the øTot ([2]; listed as [Eu(H(17O5,2)-1,2-HOPO)]^0) was 0.197 and the ϕTot [2, 16] was 0.196. The Brightness [2] was 2940 M⁻¹ cm⁻¹, the “thermodynamic stability in aqueous solution” value [10] was “high thermodynamic stabilities” and the “T0-0 (triplet excited state energy)” value [3] was 21,690 cm^−1. For the same compound, the metal centred efficiency [4] was “around 50%”, the “η^Eu” value [4] was 0.522 and the knr [4] was 679 s⁻¹. For the same compound, the τrad [4] was 1348 μs, the kr [4] was 742 s⁻¹ and the “η^sens” value [4] was 0.375. For the same compound, the τ ([9]; aqueous TRIS pH = 7.4) was 704 μs, the “τ^D” value ([9]; deuterated solution) was 962 μs and the q ([9]; improved Horrock's equations) was 0.1. For the same compound, the “τ (77K)” value [9, 15] was 826 μs.
